Results reported in PubChem BioAssay AID1963451 (Molecular Pharmacology Branch, DTP, NCI, 2024).
pIC50: −log10 of the molar value.

Tested on: 521955-158-R6-J3-PDC complex spheroid growth, % test/control
Assay: Anticancer human tumor 521955-158-R6-J3-PDC patient-derived pancreatic carcinoma cell line growth inhibition [Asc]
Conditions: for pIC50: curve of first compound; for viability, T/C: stronger effect = lower value; active means viability on the fitted dose curve at most 10% of control; inactive means the rest
Summary of the method: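 Tumor cells were grown as multicellular spheroids with stromal HUVEC and mesenchymal stem cells and treated singly or in combination. Concentrations fell in half-log steps from the clinical Cmax, or from 10 microM where none was known.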
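Further: spheroids exposed to compounds for 7 days.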
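Wherever viability, T/C is given: 100% = DMSO vehicle control wells.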

COc1c(OCCCN2CCOCC2)ccc2c3n(c(=NC(=O)c4cnc(N)nc4)nc12)CCN3 + CCN1C(C(=O)NC23CCC(C(=O)O)(CC2)CC3)C(c2cccc(Cl)c2F)C2(C(=O)Nc3cc(Cl)ccc32)C12CCCCC2
6.44: pIC50 (second compound 0.03 µM)
6.49: pIC50 (second compound 0.3 µM)
6.54: pIC50 (second compound 3 µM)
6.33: pIC50 (second compound 0.0949 µM)
inactive: viability, T/C (second compound 0.00949 µM, first compound 0.00316 µM) 102% | viability, T/C (second compound 0.00949 µM, first compound 0.01 µM) 79.9% | viability, T/C (second compound 0.00949 µM, first compound 0.0316 µM) 62.5% | viability, T/C (second compound 0.00949 µM, first compound 0.1 µM) 65.2% | viability, T/C (second compound 0.00949 µM, first compound 0.316 µM) 51.9% | viability, T/C (second compound 0.00949 µM, first compound 1 µM) 28.3% | viability, T/C (second compound 0.03 µM, first compound 0.00316 µM) 93.4% | viability, T/C (second compound 0.03 µM, first compound 0.01 µM) 77.1% | viability, T/C (second compound 0.03 µM, first compound 0.0316 µM) 73.2% | viability, T/C (second compound 0.03 µM, first compound 0.1 µM) 66.2% | viability, T/C (second compound 0.03 µM, first compound 0.316 µM) 52.6% | viability, T/C (second compound 0.03 µM, first compound 1 µM) 37.4% | viability, T/C (second compound 0.0949 µM, first compound 0.00316 µM) 79.1% | viability, T/C (second compound 0.0949 µM, first compound 0.01 µM) 77.9% | viability, T/C (second compound 0.0949 µM, first compound 0.0316 µM) 59.5% | viability, T/C (second compound 0.0949 µM, first compound 0.1 µM) 77.7% | viability, T/C (second compound 0.0949 µM, first compound 0.316 µM) 53.9% | viability, T/C (second compound 0.0949 µM, first compound 1 µM) 37% | viability, T/C (second compound 0.3 µM, first compound 0.00316 µM) 95.5% | viability, T/C (second compound 0.3 µM, first compound 0.01 µM) 83.3% | viability, T/C (second compound 0.3 µM, first compound 0.0316 µM) 70.1% | viability, T/C (second compound 0.3 µM, first compound 0.1 µM) 65.5% | viability, T/C (second compound 0.3 µM, first compound 0.316 µM) 56% | viability, T/C (second compound 0.3 µM, first compound 1 µM) 32.1% | viability, T/C (second compound 0.949 µM, first compound 0.00316 µM) 84% | viability, T/C (second compound 0.949 µM, first compound 0.01 µM) 90.6% | viability, T/C (second compound 0.949 µM, first compound 0.0316 µM) 80.5% | viability, T/C (second compound 0.949 µM, first compound 0.1 µM) 67.6% | viability, T/C (second compound 0.949 µM, first compound 0.316 µM) 50.6% | viability, T/C (second compound 0.949 µM, first compound 1 µM) 32.7% | viability, T/C (second compound 3 µM, first compound 0.00316 µM) 82.1% | viability, T/C (second compound 3 µM, first compound 0.01 µM) 83.8% | viability, T/C (second compound 3 µM, first compound 0.0316 µM) 78.8% | viability, T/C (second compound 3 µM, first compound 0.1 µM) 65% | viability, T/C (second compound 3 µM, first compound 0.316 µM) 49.6% | viability, T/C (second compound 3 µM, first compound 1 µM) 28.8%
6.51: pIC50 (second compound 0.949 µM)
6.68: pIC50 (second compound 0.00949 µM)
